Consider 16 compounds from US20220242870A1, “HETEROCYCLE-FUSED PYRIMIDINE DERIVATIVE AND USE THEREOF” (VORONOI Inc., priority 2019, published 2022).

Assay [1] relates to MV4-11 cells. Briefly: AML cell proliferation inhibitory activity (CellTiter-Glo). The assay is classed as cell-based. To be noted: Homo sapiens, 72 hours. The method in brief: (§1)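 RS4;11 and MV4-11 cells in RPMI-1640 with 10% FBS, seeded 24 h before treatment, then exposed 72 h to 12 three-fold dilutions (0.3 nM–50 μM final). Viability by CellTiter-Glo luminescence relative to solvent control; GI50 from triplicate experiments.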

Assay [2] has as its system RS4;11 cells. Described as above. The class given is cell-based. The note with it: Homo sapiens, 72 hours. The method in brief:
as §1

The test system of assay [3] is MCF-7 cells. The assay is described as follows: Breast cancer cell line proliferation inhibitory activity (CellTiter-Glo 2.0). The class given is cell-based. The note with it: Homo sapiens, MCF7, 120 hours. An outline of the steps: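 MCF-7 cells exposed to a 12-point, 3-fold dilution series (final 0.00005–10 μM) for 120 h at 37 °C. Viability read by CellTiter-Glo 2.0 luminescence, expressed as percent of vehicle-treated cells. GI50 (nM) derived from the curves.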

The target of assay [4] is T1, human FLT3-ITD enzyme (Homo sapiens, UniProt P36888).
T1 sequence (P36888 1-993): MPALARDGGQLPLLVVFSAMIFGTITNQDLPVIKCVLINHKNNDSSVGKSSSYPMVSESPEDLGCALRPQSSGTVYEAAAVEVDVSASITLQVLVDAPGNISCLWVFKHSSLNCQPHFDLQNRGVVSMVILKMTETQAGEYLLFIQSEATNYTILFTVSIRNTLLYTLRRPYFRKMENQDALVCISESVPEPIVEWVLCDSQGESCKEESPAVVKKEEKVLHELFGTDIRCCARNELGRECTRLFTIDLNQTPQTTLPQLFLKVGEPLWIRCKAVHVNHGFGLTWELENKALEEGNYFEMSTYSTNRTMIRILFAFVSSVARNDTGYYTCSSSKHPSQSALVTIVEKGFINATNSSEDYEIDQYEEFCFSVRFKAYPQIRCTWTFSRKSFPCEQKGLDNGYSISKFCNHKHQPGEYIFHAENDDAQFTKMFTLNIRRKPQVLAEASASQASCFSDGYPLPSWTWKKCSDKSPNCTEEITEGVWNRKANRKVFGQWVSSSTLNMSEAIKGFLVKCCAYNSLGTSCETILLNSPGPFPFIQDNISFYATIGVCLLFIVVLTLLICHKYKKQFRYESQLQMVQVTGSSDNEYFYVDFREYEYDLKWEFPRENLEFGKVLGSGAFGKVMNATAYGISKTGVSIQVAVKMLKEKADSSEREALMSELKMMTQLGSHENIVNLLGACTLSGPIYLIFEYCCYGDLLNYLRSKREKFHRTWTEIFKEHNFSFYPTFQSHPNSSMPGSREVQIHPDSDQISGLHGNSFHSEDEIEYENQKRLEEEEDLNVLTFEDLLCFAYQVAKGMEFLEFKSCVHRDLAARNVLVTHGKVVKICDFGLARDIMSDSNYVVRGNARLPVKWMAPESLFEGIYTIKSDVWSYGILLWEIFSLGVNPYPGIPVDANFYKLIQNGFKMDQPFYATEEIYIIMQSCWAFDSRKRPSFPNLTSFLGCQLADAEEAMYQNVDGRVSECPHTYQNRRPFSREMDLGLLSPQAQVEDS
The assay is described as follows: FLT3 enzyme inhibitory ability (ADP-Glo kinase assay). The class given is biochemical. To be noted: human FLT3-ITD enzyme 10 ng, ATP 10 μM, 25° C. 1 hour. The method in brief: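 Purified human FLT3-ITD (10 ng) with 10 μM ATP and specific substrate in 40 mM Tris-HCl pH 7.4, 20 mM MgCl2, 0.5 mg/mL BSA, 50 μM DTT, 1 h at 25 °C. ADP formation read by ADP-Glo luminescence; IC50 (nM) versus solvent-treated control.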

Assay [5] concerns the target T2, human GST-HPK1 (1-346) (Homo sapiens, UniProt Q92918).
T2 construct: purified human GST-HPK1 (1-346, Signalchem) enzyme; purchased Signalchem
T2 sequence (Q92918 1-346): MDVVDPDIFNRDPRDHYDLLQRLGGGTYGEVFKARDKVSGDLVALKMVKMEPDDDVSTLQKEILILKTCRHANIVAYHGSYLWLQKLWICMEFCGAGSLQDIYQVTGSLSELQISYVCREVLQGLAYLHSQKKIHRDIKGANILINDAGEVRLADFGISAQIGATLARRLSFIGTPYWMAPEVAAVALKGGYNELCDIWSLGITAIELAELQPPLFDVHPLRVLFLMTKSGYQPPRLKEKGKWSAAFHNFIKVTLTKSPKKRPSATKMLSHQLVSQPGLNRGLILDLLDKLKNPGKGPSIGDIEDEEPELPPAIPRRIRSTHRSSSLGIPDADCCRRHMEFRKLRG
Briefly: HPK1 enzyme inhibitory ability (ADP-Glo kinase assay). The class given is biochemical. The note with it: human GST-HPK1 3 ng, ATP 3 uM, 25° C. 2 hours. The method in brief: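 Human GST-HPK1(1-346), 3 ng, reacted with 3 uM ATP and specific substrate in 40 mM Tris-HCl pH 7.4, 20 mM MgCl2, 0.5 mg/mL BSA, 50 uM DTT for 2 h at 25° C. ADP-Glo luminescence read; IC50 (nM) relative to untreated solvent control.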

Structures are written as SMILES. Bounds are passed on as bounds.

For the compound `CN1CCN(c2ccc(Nc3nc(N4N=CCC4c4ccccc4)c4sccc4n3)cn2)CC1` (stereo not drawn) [Example 5, N-(6-(4-methylpiperazin-1-yl)pyridin-3-yl)-4-(5-phenyl-4,5-dihydro-1H-pyrazol-1-yl)thieno[3,2-d]pyrimidin-2-amine], the GI50 in assay [1], in assay [2] and in assay [3] was above 500 nM throughout. Also, the 50% inhibitory concentration (IC50) in assay [4] and in assay [5] was above 500 nM each time.
In the case of `CN1CCN(C2CCN(c3ccc(Nc4nc(N5N=CCC5c5ccccc5)c5sccc5n4)cc3)CC2)CC1` (stereo not drawn) [Example 7, N-(4-(4-(4-methylpiperazin-1-yl)piperidin-1-yl)phenyl)-4-(5-phenyl-4,5-dihydro-1H-pyrazol-1-yl)thieno[3,2-d]pyrimidin-2-amine], the figures for the GI50 in assay [1], in assay [2] and in assay [3] were 250 to 500 nM, above 500 nM and above 500 nM, respectively. In addition, the IC50 is at least 250 nM in assay [4] and above 500 nM in assay [5].
`CN1CCN(C(=O)c2ccc(Nc3nc(N4N=CCC4c4ccccc4)c4sccc4n3)cc2)CC1` (stereo not drawn) [Example 11, (4-methylpiperazin-1-yl)(4-((4-(5-phenyl-4,5-dihydro-1H-pyrazol-1-yl)thieno[3,2-d]pyrimidin-2-yl)amino)phenyl)methanone]: the GI50 in assay [1], in assay [2] and in assay [3] was above 500 nM each time. The 50% inhibitory concentration (IC50) in assay [4] and in assay [5] was above 500 nM in each case.
Regarding `C[C@@H]1CN(Cc2cc(Nc3nc(N4N=CCC4c4ccccc4)c4sccc4n3)cc(C3CC3)c2)C[C@H](C)N1` (stereo partly drawn) [Example 12, N-(3-cyclopropyl-5-(((3R,5S)-3,5-dimethylpiperazin-1-yl)methyl)phenyl)-4-(5-phenyl-4,5-dihydro-1H-pyrazol-1-yl)thieno[3,2-d]pyrimidin-2-amine], the 50% growth inhibitory concentration (GI50) in assay [1] is 250 to 500 nM; in assay [2] it was above 500 nM; in assay [3], above 500 nM. Also, the half-maximal inhibitory concentration (IC50) in assay [4] and in assay [5] was above 500 nM throughout.
Take `CN1CCC(Oc2ccc(Nc3nc(N4N=CCC4c4ccccc4)c4sccc4n3)cc2)CC1` (stereo not drawn) [Example 13, N-(4-((1-methylpiperidin-4-yl)oxy)phenyl)-4-(5-phenyl-4,5-dihydro-1H-pyrazol-1-yl)thieno[3,2-d]pyrimidin-2-amine]: the results for the GI50 in assay [1], in assay [2] and in assay [3] were 250 to 500 nM, above 500 nM and above 500 nM, respectively. Moreover, the IC50 in assay [4] and in assay [5] was above 500 nM in each case.
As for `CN1CCC(NC(=O)c2ccc(Nc3nc(N4N=CCC4c4ccccc4)c4sccc4n3)cc2)CC1` (stereo not drawn) [Example 19, N-(1-methylpiperidin-4-yl)-4-((4-(5-phenyl-4,5-dihydro-1H-pyrazol-1-yl)thieno[3,2-d]pyrimidin-2-yl)amino)benzamide], the GI50 in assay [1] was at least 250 nM; in assay [2] it was above 500 nM; in assay [3], above 500 nM. Besides, the half-maximal inhibitory concentration (IC50) in assay [4] is at least 250 nM; in assay [5], above 500 nM.
In the case of `CN1CCN(C(=O)Nc2ccc(Nc3nc(N4N=CCC4c4ccccc4)c4sccc4n3)cc2)CC1` (stereo not drawn) [Example 20, 4-methyl-N-(4-((4-(5-phenyl-4,5-dihydro-1H-pyrazol-1-yl)thieno[3,2-d]pyrimidin-2-yl)amino)phenyl)piperazine-1-carboxamide], the concentration for 50% growth inhibition (GI50) in assay [1] is 250 to 500 nM; in assay [2] it was above 500 nM. The same compound displayed an IC50 in assay [4] of at least 250 nM.
On to `CN1Cc2cc(Nc3nc(N4N=CCC4c4ccccc4)c4sccc4n3)ccc2C1=O` (stereo not drawn) [Example 25, 2-methyl-5-((4-(5-phenyl-4,5-dihydro-1H-pyrazol-1-yl)thieno[3,2-d]pyrimidin-2-yl)amino)isoindolin-1-one], for which the GI50 in assay [1] is 250 to 500 nM; in assay [2] it was above 500 nM; in assay [3], above 500 nM. The IC50 in assay [4] and in assay [5] was above 500 nM in each case.
Consider `CN1CCN(c2ccc(Nc3nc(N4N=CCC4c4cc5ccccc5cn4)c4sccc4n3)cc2)CC1` (stereo not drawn) [Example 32, 4-(5-(isoquinolin-3-yl)-4,5-dihydro-1H-pyrazol-1-yl)-N-(4-(4-methylpiperazin-1-yl)phenyl)thieno[3,2-d]pyrimidin-2-amine], for which the GI50 in assay [1] and in assay [2] was above 500 nM throughout. For the same compound, the half-inhibitory concentration (IC50) in assay [4] is above 500 nM.
As to `CN1CCN(c2ccc(Nc3nc(N4N=CCC4c4ccccn4)c4sccc4n3)cc2)CC1` (stereo not drawn) [Example 33, N-(4-(4-methylpiperazin-1-yl)phenyl)-4-(5-(pyridin-2-yl)-4,5-dihydro-1H-pyrazol-1-yl)thieno[3,2-d]pyrimidin-2-amine], the concentration for 50% growth inhibition (GI50) in assay [1] and in assay [2] was above 500 nM in each case. The same compound yielded an IC50 in assay [4] above 500 nM.
Regarding `CN1CCN(c2ccc(Nc3nc(N4N=CCC4c4cccc(F)c4)c4sccc4n3)cc2)CC1` (stereo not drawn) [Example 36, 4-(5-(3-fluorophenyl)-4,5-dihydro-1H-pyrazol-1-yl)-N-(4-(4-methylpiperazin-1-yl)phenyl)thieno[3,2-d]pyrimidin-2-amine], the GI50 was at least 250 nM in assay [1] and above 500 nM in assay [2]. In addition, the IC50 in assay [4] and in assay [5] was above 500 nM throughout.
Take `CCN1CCN(c2ccc(Nc3nc(N4N=CCC4c4ccccc4)c4sccc4n3)cc2)CC1` (stereo not drawn) [Example 39, N-(4-(4-ethylpiperazin-1-yl)phenyl)-4-(5-phenyl-4,5-dihydro-1H-pyrazol-1-yl)thieno[3,2-d]pyrimidin-2-amine]: the concentration for 50% growth inhibition (GI50) was at least 250 nM in assay [1] and above 500 nM in assay [2]. This compound gave an IC50 in assay [4] of at least 250 nM.
For the compound `COc1cc(Nc2nc(N3N=CCC3c3ccccc3)c3sccc3n2)ccc1N1CCN(C)CC1` (stereo not drawn) [Example 40, N-(3-methoxy-4-(4-methylpiperazin-1-yl)phenyl)-4-(5-phenyl-4,5-dihydro-1H-pyrazol-1-yl)thieno[3,2-d]pyrimidin-2-amine], the GI50 is at least 250 nM in assay [1] and above 500 nM in assay [2]. In assay [4], the 50% inhibitory concentration (IC50) was 250 to 500 nM.
As to `CCN1CCN(c2ccc(Nc3nc(N4N=CCC4c4ccccc4)c4sccc4n3)c(OC)c2)CC1` (stereo not drawn) [Example 41, N-(4-(4-ethylpiperazin-1-yl)-2-methoxyphenyl)-4-(5-phenyl-4,5-dihydro-1H-pyrazol-1-yl)thieno[3,2-d]pyrimidin-2-amine], the 50% growth inhibitory concentration (GI50) was at least 250 nM in assay [1] and above 500 nM in assay [2]. This compound returned a half-maximal inhibitory concentration (IC50) in assay [4] of at least 250 nM.
As for `CCN(CC)CCOc1c(C)cc(Nc2nc(N3N=CCC3c3ccccc3)c3sccc3n2)cc1C` (stereo not drawn) [Example 46, N-(4-(2-(diethylamino)ethoxy)-3,5-dimethylphenyl)-4-(5-phenyl-4,5-dihydro-1H-pyrazol-1-yl)thieno[3,2-d]pyrimidin-2-amine], the concentration for 50% growth inhibition (GI50) in assay [1] is 250 to 500 nM; in assay [2], above 500 nM. In addition, the concentration for half-maximal inhibition (IC50) in assay [4] was above 500 nM.
Regarding `COc1cc(Nc2nc(N3N=CCC3c3ccccc3)c3sccc3n2)cc(OC)c1OC` (stereo not drawn) [Example 51, 4-(5-phenyl-4,5-dihydro-1H-pyrazol-1-yl)-N-(3,4,5-trimethoxyphenyl)thieno[3,2-d]pyrimidin-2-amine], the figures for the 50% growth inhibitory concentration (GI50) in assay [1] and in assay [2] were at least 250 nM and above 500 nM, respectively. The compound further showed an IC50 in assay [4] above 500 nM.
